Results: patent publication US9067898B1, “Isothiazole derivatives as GPR120 agonists for the treatment of type II diabetes” (Janssen Pharmaceutica NV, priority 2014, dated 2015)

Assays:
[1] = target: T1, short form of the GPR120 receptor (GPR120S) (Homo sapiens, UniProt Q5NUL3); test: Human GPR120 DiscoveRx PathHunter Beta-Arrestin assay, Procedure β-arrestin B; format: cell-based; details: PathHunter CHO-K1 GPR120S β-Arrestin cell line, 5000 cells/well, read-out: hGPR120 β-arrestin B EC50
T1 construct: host or cells: PathHunter CHO-K1 GPR120S β-Arrestin Cell Line
T1 sequence (P32121 whole entry partner, one chain of several): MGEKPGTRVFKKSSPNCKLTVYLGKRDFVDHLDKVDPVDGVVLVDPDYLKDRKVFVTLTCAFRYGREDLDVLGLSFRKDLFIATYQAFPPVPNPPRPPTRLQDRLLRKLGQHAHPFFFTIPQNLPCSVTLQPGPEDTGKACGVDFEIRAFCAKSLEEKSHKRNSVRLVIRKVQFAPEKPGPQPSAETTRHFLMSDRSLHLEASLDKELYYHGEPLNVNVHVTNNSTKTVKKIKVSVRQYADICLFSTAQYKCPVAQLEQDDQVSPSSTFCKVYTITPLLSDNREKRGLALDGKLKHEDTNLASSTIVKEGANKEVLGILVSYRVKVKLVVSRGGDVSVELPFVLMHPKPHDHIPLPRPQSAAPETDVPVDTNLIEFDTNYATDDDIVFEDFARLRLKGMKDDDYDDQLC
Excerpt: The binding of an agonist (medium/long chain fatty acids or small molecule agonists) to the G-protein-coupled receptor GPR120 activates phospholipase C, leading to release of intracellular Ca^+2 through the generation of inositol 1,4,5-trisphosphate (InsP3 or IP3). GPR120 activation can also trigger intracellular signaling via recruitment of Beta-Arrestin. In the present method, agonist-induced activation of the human GPR120 receptor is monitored through the use of PathHunter CHO-K1 GPR120 Beta-Arrestin Cell Line engineered by DiscoveRx, as detailed below. The cell lines are designed to co-express both the ProLink/Enzyme Donor (PK)-tagged GPCR and the Enzyme […] (EA)-tagged Beta-Arrestin fusion proteins. Upon GPR120 receptor stimulation/activation, the EA-tagged Beta-Arrestin portion is translocated to the tagged receptor, where the two enzyme fragments are brought within close proximity. Under these conditions, these fragments can interact and form an active Beta-gal enzyme complex through Enzyme Fragment Complementation (EFC). This active Beta-gal complex can enzymatically hydrolyse the substrate to produce a detectable light signal; therefore, activation as a function of agonist concentration can be expressed as an EC50 value to determine relative compound activities. This in vitro assay therefore serves to assess compound agonist activity of the GPR120. Procedure β-Arrestin A: In Procedure β-arrestin A, the cell used were PathHunter CHO-K1 GPR120 β-Arrestin Cell Line, expressing the long form of human GPR120 (Genbank accession number NM 181745), with 3000 cells per well. Procedure β-Arrestin B: In Procedure 3-arrestin B the cells used were PathHunter CHO-K1 GPR120S β-Arrestin Cell Line, expressing the short form of the GPR120 receptor (Accession #NM_181745), with 5000 cells/well. Assay Procedure:
The selected CHO-K1 GPR120 β-Arrestin cells were cultured in Ham's F12 media supplemented with 10% fetal bovine serum (FBS), 1% Glutamine, lx p/s, 800 μg/mL G418 and 300 μg/mL Hygromycin B (for selection). Cell stocks were maintained and grown in a sub-confluent state using standard cell culture procedures. The day before the experiment, the cells were harvested with non-enzymatic cell dissociation buffer and re-suspended in complete growth media at the desired concentration. A Corning 384-plate was then seeded with the proper number of cells in a volume of 25 μL, per well. The seeded plates were incubated overnight at 37° C.
On the day of the experiment, the Assay Buffer containing (a) HBSS with Ca^++ and Mg^++, (b) 20 mM HEPES, and (c) 0.1% BSA stabilizer (pH 7.4) was prepared. The growth medium was gently removed from the cell plates and 20 μL of Assay Buffer added to each well. The plate was then incubated at 37° C. for 60 min. Test compounds were serially diluted in Assay Buffer to desired concentrations (more particularly to one or more of the following μM concentrations: 25, 12.5, 6.25, 3.125, 1.5625, 0.78125, 0.390625, 0.1953125, 0.09765625, 0.048828125, 0.024414063, 0.012207031). Five μL of compound dilution was then added to each well and the plate incubated at 37° C. for 90 min. The detection reagents were prepared according to the manufacture's instruction. Twelve μL of the detection reagents were added to each well and the plate incubated at room temperature for 60 min.
The plates were read on an EnVision instrument, using Protocol name: Luminescence, Plate type: 384 Costar, Measurement height: 3 mm, Measurement time: 1 s, Aperture: 384 Plate aperture. The % activity relative to the positive control was calculated using the following equation:
The % Activity values were plotted versus the concentration of test compound and fitted to a sigmoidal dose-response curve with a Hill slope=1 (fixed value) using nonlinear regression with GraphPad Prism 5.0 to calculate the EC50 values. […]

Human GPR120 short form = target: T2, Human GPR120 short form (Homo sapiens, UniProt Q5NUL3); test: Human GPR120 calcium flux assay (FLIPR), Procedure Calcium A; format: cell-based; details: HEK-293 cells expressing human GPR120 short form, 2500 cells/well; read-out: GPR120 Ca2+ Assay A EC50
T2 construct: expressed in transfected cells
T2 sequence (Q5NUL3 1-361): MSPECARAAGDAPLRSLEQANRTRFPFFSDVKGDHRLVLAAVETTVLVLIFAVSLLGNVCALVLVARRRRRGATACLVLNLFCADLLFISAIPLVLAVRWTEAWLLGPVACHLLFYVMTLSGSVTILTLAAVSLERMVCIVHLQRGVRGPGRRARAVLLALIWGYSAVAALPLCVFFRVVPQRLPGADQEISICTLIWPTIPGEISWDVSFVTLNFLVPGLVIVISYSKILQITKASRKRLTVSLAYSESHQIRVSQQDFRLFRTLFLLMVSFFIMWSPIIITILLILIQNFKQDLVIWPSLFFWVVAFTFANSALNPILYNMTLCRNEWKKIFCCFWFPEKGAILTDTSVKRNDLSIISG
Procedure, shortened: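 HEK293 cells stably expressing the short isoform (NM_001195755.1), 2500/well, starved 1 h, then loaded with Fluo-4 NW plus probenecid (30 min 37 °C, 15 min RT). Compound solutions 0.012–100 μM, 0.2% DMSO final; FLIPR read 300 s after addition. EC50 from Fmax−Fmin fitted to variable-slope sigmoid (Hill <2).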

EC50 [1] [µM] | EC50 (Human GPR120 short form) [µM] | SMILES
0.132 | 0.16 | O=C(O)CCc1cc(F)c(OCc2c(-c3ccccc3)nsc2C(F)(F)F)c(F)c1 [Cpd 145, 3-(3,5-difluoro-4-((3-phenyl-5-(trifluoromethyl)isothiazol-4-yl)methoxy)phenyl)propanoic acid]
0.39 | 0.165 | O=C(O)CCc1cc(F)c(OCc2c(C3CC(F)(F)C3)nsc2C(F)(F)F)c(F)c1 [Cpd 147, 3-(4-[[3-(3,3-difluorocyclobutyl)-5-(trifluoromethyl)-1,2-thiazol-4-yl]methoxy]-3,5-difluorophenyl) propanoic acid]
0.085 | 0.169 | COc1ccc(-c2nsc(C(F)(F)F)c2COc2c(F)cc(CCC(=O)O)cc2F)c(F)c1 [Cpd 151, 3-(3,5-difluoro-4-[[3-(2-fluoro-4-methoxyphenyl)-5-(trifluoromethyl)-1,2-thiazol-4-yl]methoxy]phenyl)propanoic acid]
0.719 | 0.182 | Cc1ccc(-c2snc(C(F)(F)F)c2COc2ccc(CCC(=O)O)c(C)c2C)c(F)c1 [Cpd 155, 3-(4-[[5-(2-fluoro-4-methylphenyl)-3-(trifluoromethyl)-1,2-thiazol-4-yl]methoxy]-2,3-dimethylphenyl)propanoic acid]
0.415 | 0.198 | O=C(O)CCc1ccc(OCc2c(C(F)(F)F)nsc2-c2ccc(Cl)cc2)cc1OC(F)(F)F [Cpd 159, 3-(4-[[5-(4-chlorophenyl)-3-(trifluoromethyl)-1,2-thiazol-4-yl]methoxy]-2-(trifluoromethoxy)phenyl) propanoic acid]
0.427 | 0.21 | O=C(O)CCc1cc(F)c(OCc2c(C3CCC(F)(F)C3)nsc2C(F)(F)F)c(F)c1 (stereo not shown) [Cpd 164, 3-(4-[[3-(3,3-difluorocyclopentyl)-5-(trifluoromethyl)-1,2-thiazol-4-yl]methoxy]-3,5-difluorophenyl)propanoic acid]
0.435 | 0.215 | CC(Cc1ccc(OCc2c(-c3ccc(Cl)c(F)c3)nsc2C(F)(F)F)cc1)C(=O)O (stereo not shown) [Cpd 165, 3-(4-((3-(4-chloro-3-fluorophenyl)-5-(trifluoromethyl)isothiazol-4-yl)methoxy)phenyl)-2-methylpropanoic acid]
0.352 | 0.222 | COc1ccc(-c2nsc(C(F)(F)F)c2COc2ccc(CCC(=O)O)c(C)c2C)cn1 [Cpd 167, 3-(4-[[3-(6-methoxypyridin-3-yl)-5-(trifluoromethyl)-1,2-thiazol-4-yl]methoxy]-2,3-dimethylphenyl)propanoic acid]
1.21 | 0.226 | Cc1ccc(-c2nsc(C(F)(F)F)c2COc2ccc(CCC(=O)O)c(C(F)(F)F)c2)c(F)c1 [Cpd 171, 3-(4-[[3-(2-fluoro-4-methylphenyl)-5-(trifluoromethyl)-1,2-thiazol-4-yl]methoxy]-2-(trifluoromethyl)phenyl)propanoic acid]
0.147 | 0.229 | COc1ccc(-c2nsc(C(F)(F)F)c2COc2ccc(CCC(=O)O)c(C)c2C)cc1F [Cpd 172, 3-(4-[[3-(3-fluoro-4-methoxyphenyl)-5-(trifluoromethyl)-1,2-thiazol-4-yl]methoxy]-2,3-dimethylphenyl)propanoic acid]
0.421 | 0.236 | O=C(O)CCc1ccc(OCc2c(-c3ccc(Cl)cc3)nsc2C(F)(F)F)cc1C(F)(F)F [Cpd 173, 3-(4-[[3-(4-chlorophenyl)-5-(trifluoromethyl)-4-yl]methoxy]-2-(trifluoromethyl)phenyl)propanoic acid]
0.085 | 0.246 | O=C(O)CCc1cc(F)c(OCc2c(-c3ccc(F)cc3F)nsc2C(F)(F)F)c(F)c1 [Cpd 174, 3-(4-((3-(2,4-difluorophenyl)-5-(trifluoromethyl)isothiazol-4-yl)methoxy)-3,5-difluorophenyl)propanoic acid]
0.23 | 0.247 | Cc1ccc(-c2snc(Cl)c2COc2ccc(CCC(=O)O)c(C(F)(F)F)c2)c(F)c1 [Cpd 175, 3-(4-[[3-chloro-5-(2-fluoro-4-methylphenyl)-1,2-thiazol-4-yl]methoxy]-2-(trifluoromethyl)phenyl)propanoic acid]
0.997 | 0.3 | Cc1ccc(-c2snc(C(F)(F)F)c2COc2ccc(CCC(=O)O)c(C)c2C)c(C)c1 [Cpd 184, 3-(4-[[5-(2,4-dimethylphenyl)-3-(trifluoromethyl)-1,2-thiazol-4-yl]methoxy]-2,3-dimethylphenyl) propanoic acid]
0.153 | 0.306 | CCc1ccc(-c2nsc(C(F)(F)F)c2COc2c(F)cc(CC(C)C(=O)O)cc2F)c(F)c1 (stereo not shown) [Cpd 188, 3-(4-((3-(4-ethyl-2-fluorophenyl)-5-(trifluoromethyl)isothiazol-4-yl)methoxy)-3,5-difluorophenyl)-2-methylpropanoic acid]
0.04 | 0.362 | CCc1ccc(-c2nsc(C(F)(F)F)c2COc2c(F)cc(CCC(=O)O)cc2F)cc1F [Cpd 194, 3-(4-((3-(4-ethyl-3-fluorophenyl)-5-(trifluoromethyl)isothiazol-4-yl)methoxy)-3,5-difluorophenyl)propanoic acid]
0.307 | 0.366 | CC(Cc1ccc(OCc2c(-c3ccc(Cl)cc3)nsc2C(F)(F)F)cc1)C(=O)O (stereo not shown) [Cpd 195, 3-(4-[[3-(4-chlorophenyl)-5-(trifluoromethyl)-1,2-thiazol-4-yl]methoxy]phenyl)-2-methylpropanoic acid]
0.195 | 0.37 | CC(Cc1cc(F)c(OCc2c(-c3ccc(F)cc3F)nsc2C(F)(F)F)c(F)c1)C(=O)O (stereo not shown) [Cpd 196, 3-(4-((3-(2,4-difluorophenyl)-5-(trifluoromethyl)isothiazol-4-yl)methoxy)-3,5-difluorophenyl)-2-methylpropanoic acid]
0.224 | 0.392 | COc1cc(F)c(-c2nsc(C(F)(F)F)c2COc2c(F)cc(CCC(=O)O)cc2F)c(F)c1 [Cpd 197, 3-(4-[[3-(2,6-difluoro-4-methoxyphenyl)-5-(trifluoromethyl)-1,2-thiazol-4-yl]methoxy]-3,5-difluorophenyl)propanoic acid]
0.622 | 0.423 | Cc1c(CCC(=O)O)ccc(OCc2c(C3CCC(F)(F)C3)nsc2C(F)(F)F)c1C (stereo not shown) [Cpd 199, 3-(4-[[3-(3,3-difluorocyclopentyl)-5-(trifluoromethyl)-1,2-thiazol-4-yl]methoxy]-2,3-dimethylphenyl)propanoic acid]
